Source: PubChem BioAssay (NCI)
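Test compounds were applied to cells in 96-well plates for 48 hours at 5 doses. TGI: total growth inhibition.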

Columns and labels:
Assay in all cases: NCI tumour cell line growth inhibition, 48 h
786-0 renal = tested on: 786-0 renal
A498 renal = tested on: A498 renal
A549 NSCLC = tested on: A549 NSCLC
ACHN renal = tested on: ACHN renal
BT-549 breast = tested on: BT-549 breast
CAKI-1 renal = tested on: CAKI-1 renal
CCRF-CEM leukemia = tested on: CCRF-CEM leukemia
COLO 205 colon = tested on: COLO 205 colon
DU-145 prostate = tested on: DU-145 prostate
EKVX NSCLC = tested on: EKVX NSCLC
HCC-2998 colon = tested on: HCC-2998 colon
HCT-116 colon = tested on: HCT-116 colon
HCT-15 colon = tested on: HCT-15 colon
HL-60(TB) leukemia = tested on: HL-60(TB) leukemia
HOP-62 NSCLC = tested on: HOP-62 NSCLC
HS 578T breast = tested on: HS 578T breast
HT29 colon = tested on: HT29 colon
IGROV1 ovarian = tested on: IGROV1 ovarian
K-562 leukemia = tested on: K-562 leukemia
KM12 colon = tested on: KM12 colon
LOX IMVI melanoma = tested on: LOX IMVI melanoma
M14 melanoma = tested on: M14 melanoma
MALME-3M melanoma = tested on: MALME-3M melanoma
MCF7 breast = tested on: MCF7 breast
MDA-MB-231 breast = tested on: MDA-MB-231 breast
MDA-MB-435 = tested on: MDA-MB-435
MDA-N = tested on: MDA-N
MOLT-4 leukemia = tested on: MOLT-4 leukemia
NCI-H226 lung = tested on: NCI-H226 lung
NCI-H23 lung = tested on: NCI-H23 lung
NCI-H460 lung = tested on: NCI-H460 lung
NCI-H522 lung = tested on: NCI-H522 lung
OVCAR-8 ovarian = tested on: OVCAR-8 ovarian
PC-3 prostate = tested on: PC-3 prostate
RPMI-8226 leukemia = tested on: RPMI-8226 leukemia
SF-268 CNS = tested on: SF-268 CNS
SF-295 CNS = tested on: SF-295 CNS
SF-539 CNS = tested on: SF-539 CNS
SK-MEL-28 melanoma = tested on: SK-MEL-28 melanoma
SK-MEL-5 melanoma = tested on: SK-MEL-5 melanoma
SK-OV-3 ovarian = tested on: SK-OV-3 ovarian
SN12C renal = tested on: SN12C renal
SNB-19 CNS = tested on: SNB-19 CNS
SNB-75 CNS = tested on: SNB-75 CNS
SR leukemia = tested on: SR leukemia
SW-620 colon = tested on: SW-620 colon
T-47D breast = tested on: T-47D breast
TK-10 renal = tested on: TK-10 renal
UACC-257 melanoma = tested on: UACC-257 melanoma
UACC-62 melanoma = tested on: UACC-62 melanoma
UO-31 renal = tested on: UO-31 renal
HOP-92 NSCLC = tested on: HOP-92 NSCLC
NCI/ADR-RES ovarian = tested on: NCI/ADR-RES ovarian
OVCAR-3 ovarian = tested on: OVCAR-3 ovarian
OVCAR-4 ovarian = tested on: OVCAR-4 ovarian
OVCAR-5 ovarian = tested on: OVCAR-5 ovarian
RXF 393 renal = tested on: RXF 393 renal
SK-MEL-2 melanoma = tested on: SK-MEL-2 melanoma
U251 CNS = tested on: U251 CNS

C=CCOCn1ccc(NC(=O)c2ccccc2)nc1=O
TGI (786-0 renal): > 100 µM
TGI (A498 renal): > 100 µM
TGI (A549 NSCLC): > 100 µM
TGI (ACHN renal): > 100 µM
TGI (BT-549 breast): > 100 µM
TGI (CAKI-1 renal): > 100 µM
TGI (CCRF-CEM leukemia): > 100 µM
TGI (COLO 205 colon): > 100 µM
TGI (DU-145 prostate): > 100 µM
TGI (EKVX NSCLC): > 100 µM
TGI (HCC-2998 colon): > 100 µM
TGI (HCT-116 colon): > 100 µM
TGI (HCT-15 colon): > 100 µM
TGI (HL-60(TB) leukemia): > 100 µM
TGI (HOP-62 NSCLC): > 100 µM
TGI (HS 578T breast): > 100 µM
TGI (HT29 colon): > 100 µM
TGI (IGROV1 ovarian): > 100 µM
TGI (K-562 leukemia): > 100 µM
TGI (KM12 colon): > 100 µM
TGI (LOX IMVI melanoma): > 100 µM
TGI (M14 melanoma): > 100 µM
TGI (MALME-3M melanoma): > 100 µM
TGI (MCF7 breast): > 100 µM
TGI (MDA-MB-231 breast): > 100 µM
TGI (MDA-MB-435): > 100 µM
TGI (MDA-N): > 100 µM
TGI (MOLT-4 leukemia): > 100 µM
TGI (NCI-H226 lung): > 100 µM
TGI (NCI-H23 lung): > 100 µM
TGI (NCI-H460 lung): > 100 µM
TGI (NCI-H522 lung): > 100 µM
TGI (OVCAR-8 ovarian): > 100 µM
TGI (PC-3 prostate): > 100 µM
TGI (RPMI-8226 leukemia): > 100 µM
TGI (SF-268 CNS): > 100 µM
TGI (SF-295 CNS): > 100 µM
TGI (SF-539 CNS): > 100 µM
TGI (SK-MEL-28 melanoma): > 100 µM
TGI (SK-MEL-5 melanoma): > 100 µM
TGI (SK-OV-3 ovarian): > 100 µM
TGI (SN12C renal): > 100 µM
TGI (SNB-19 CNS): > 100 µM
TGI (SNB-75 CNS): > 100 µM
TGI (SR leukemia): > 100 µM
TGI (SW-620 colon): > 100 µM
TGI (T-47D breast): > 100 µM
TGI (TK-10 renal): > 100 µM
TGI (UACC-257 melanoma): > 100 µM
TGI (UACC-62 melanoma): > 100 µM
TGI (UO-31 renal): > 100 µM

C[N+]1(CCCC[N+]2(C)CCCCCCC2)CCCCCCC1
TGI (786-0 renal): > 100 µM
TGI (A498 renal): > 100 µM
TGI (A549 NSCLC): > 100 µM
TGI (ACHN renal): > 100 µM
TGI (BT-549 breast): > 100 µM
TGI (CAKI-1 renal): > 100 µM
TGI (CCRF-CEM leukemia): > 100 µM
TGI (DU-145 prostate): > 100 µM
TGI (EKVX NSCLC): > 100 µM
TGI (HCT-116 colon): > 100 µM
TGI (HCT-15 colon): > 100 µM
TGI (HL-60(TB) leukemia): > 100 µM
TGI (HOP-62 NSCLC): > 100 µM
TGI (HOP-92 NSCLC): > 100 µM
TGI (HS 578T breast): 60.4 µM
TGI (HT29 colon): > 100 µM
TGI (IGROV1 ovarian): > 100 µM
TGI (K-562 leukemia): > 100 µM
TGI (KM12 colon): > 100 µM
TGI (LOX IMVI melanoma): > 100 µM
TGI (M14 melanoma): > 100 µM
TGI (MALME-3M melanoma): > 100 µM
TGI (MDA-MB-231 breast): > 100 µM
TGI (MDA-MB-435): > 100 µM
TGI (MDA-N): > 100 µM
TGI (MOLT-4 leukemia): > 100 µM
TGI (NCI-H226 lung): > 100 µM
TGI (NCI-H23 lung): > 100 µM
TGI (NCI-H460 lung): > 100 µM
TGI (NCI-H522 lung): > 100 µM
TGI (NCI/ADR-RES ovarian): > 100 µM
TGI (OVCAR-3 ovarian): > 100 µM
TGI (OVCAR-4 ovarian): > 100 µM
TGI (OVCAR-5 ovarian): > 100 µM
TGI (OVCAR-8 ovarian): > 100 µM
TGI (PC-3 prostate): > 100 µM
TGI (RPMI-8226 leukemia): > 100 µM
TGI (RXF 393 renal): > 100 µM
TGI (SF-268 CNS): > 100 µM
TGI (SF-295 CNS): > 100 µM
TGI (SK-MEL-2 melanoma): > 100 µM
TGI (SK-MEL-28 melanoma): > 100 µM
TGI (SK-MEL-5 melanoma): > 100 µM
TGI (SN12C renal): > 100 µM
TGI (SNB-19 CNS): > 100 µM
TGI (SR leukemia): > 100 µM
TGI (SW-620 colon): > 100 µM
TGI (T-47D breast): > 100 µM
TGI (TK-10 renal): > 100 µM
TGI (U251 CNS): > 100 µM
TGI (UACC-257 melanoma): > 100 µM
TGI (UACC-62 melanoma): > 100 µM
TGI (UO-31 renal): > 100 µM
